Columns and labels:
[1] = Inhibition of HIV1 His6-tagged integrase-FLAG-tagged LEDGF/p75 (unknown origin) interaction after 1 hr by AlphaScreen assay
[2] = system: Human immunodeficiency virus 1; test: Antiviral activity against HIV1 infected in human MT2 cells assessed as protection from viral replication; assay type: functional, organism-based; conditions: Human immunodeficiency virus 1, MT2

| SMILES | IC50 [1] [µM] | EC50 [2] [µM] |
| --- | --- | --- |
| O=C(O)/C(O)=C/C(=O)c1cn(Cc2ccc(F)cc2)c2ccccc12 | 100 | – |
| COc1ccc(Cc2nnc(Nc3ccc(C)cc3)o2)cc1OC | – | > 100 |
| O=C(O)/C(O)=C/C(=O)c1c[nH]c2cccc(O)c12 | 35 | – |

Source: ChEMBL document CHEMBL2417456, “Hit identification and optimization in virtual screening: practical recommendations based on a critical literature analysis” (J Med Chem, 2013)
